Measurements published in patent US10519147B2 (Merck Sharp & Dohme Corp., priority 2015, dated 2019).

Target: T1, human Nav1.7 (Homo sapiens, UniProt Q15858)
T1 construct: expressed in transfected cells; host or cells: HEK 293
Test: IonWorks Quattro automated patch-clamp, inactivated state block of Nav1.7
Type: cell-based
Conditions: not given
Protocol: Compounds were tested on human Nav1.7 and Nav1.5 channels stably expressed in HEK 293 cells. […] Cells were sealed on a planar substrate using the Population Patch […] (PPC) technology. Electrical access was obtained using both nystatin and amphotericin. A double-pulse protocol was used for the determination of IC50 values for inactivated state block. Nav1.7 and Nav1.5 expressing cells were voltage clamped at −100 mV and −110 mV, respectively. A depolarizing prepulse to −10 mV (Nav1.7) or −30 mV (Nav1.5) for 1000 ms followed by a 10 ms repolarization to −100 mV (Nav1.7) or −110 mV (Nav1.5) was given to generate fractional channel inactivation of 50%, followed by a 10 ms test pulse to −10 mV (Nav1.7) or −30 mV (Nav1.5) to measure peak current in control conditions and after compound addition. The following recording solutions were used (mM). External: 150 NaCl, 2 CaCl2, 5 KCl, 1 Mg Cl2, 10 HEPES, 12 Dextrose; internal: 120 CsF, 30 CsCl, 10 EGTA, 5 HEPES, 5 NaF, 2 MgCl2.
For all electrophysiology experiments, offline analysis was used to determine percent inhibition as a function of drug concentration. IC50 values were determined by fitting to the Hill equation.

T1 sequence (Q15858 whole entry): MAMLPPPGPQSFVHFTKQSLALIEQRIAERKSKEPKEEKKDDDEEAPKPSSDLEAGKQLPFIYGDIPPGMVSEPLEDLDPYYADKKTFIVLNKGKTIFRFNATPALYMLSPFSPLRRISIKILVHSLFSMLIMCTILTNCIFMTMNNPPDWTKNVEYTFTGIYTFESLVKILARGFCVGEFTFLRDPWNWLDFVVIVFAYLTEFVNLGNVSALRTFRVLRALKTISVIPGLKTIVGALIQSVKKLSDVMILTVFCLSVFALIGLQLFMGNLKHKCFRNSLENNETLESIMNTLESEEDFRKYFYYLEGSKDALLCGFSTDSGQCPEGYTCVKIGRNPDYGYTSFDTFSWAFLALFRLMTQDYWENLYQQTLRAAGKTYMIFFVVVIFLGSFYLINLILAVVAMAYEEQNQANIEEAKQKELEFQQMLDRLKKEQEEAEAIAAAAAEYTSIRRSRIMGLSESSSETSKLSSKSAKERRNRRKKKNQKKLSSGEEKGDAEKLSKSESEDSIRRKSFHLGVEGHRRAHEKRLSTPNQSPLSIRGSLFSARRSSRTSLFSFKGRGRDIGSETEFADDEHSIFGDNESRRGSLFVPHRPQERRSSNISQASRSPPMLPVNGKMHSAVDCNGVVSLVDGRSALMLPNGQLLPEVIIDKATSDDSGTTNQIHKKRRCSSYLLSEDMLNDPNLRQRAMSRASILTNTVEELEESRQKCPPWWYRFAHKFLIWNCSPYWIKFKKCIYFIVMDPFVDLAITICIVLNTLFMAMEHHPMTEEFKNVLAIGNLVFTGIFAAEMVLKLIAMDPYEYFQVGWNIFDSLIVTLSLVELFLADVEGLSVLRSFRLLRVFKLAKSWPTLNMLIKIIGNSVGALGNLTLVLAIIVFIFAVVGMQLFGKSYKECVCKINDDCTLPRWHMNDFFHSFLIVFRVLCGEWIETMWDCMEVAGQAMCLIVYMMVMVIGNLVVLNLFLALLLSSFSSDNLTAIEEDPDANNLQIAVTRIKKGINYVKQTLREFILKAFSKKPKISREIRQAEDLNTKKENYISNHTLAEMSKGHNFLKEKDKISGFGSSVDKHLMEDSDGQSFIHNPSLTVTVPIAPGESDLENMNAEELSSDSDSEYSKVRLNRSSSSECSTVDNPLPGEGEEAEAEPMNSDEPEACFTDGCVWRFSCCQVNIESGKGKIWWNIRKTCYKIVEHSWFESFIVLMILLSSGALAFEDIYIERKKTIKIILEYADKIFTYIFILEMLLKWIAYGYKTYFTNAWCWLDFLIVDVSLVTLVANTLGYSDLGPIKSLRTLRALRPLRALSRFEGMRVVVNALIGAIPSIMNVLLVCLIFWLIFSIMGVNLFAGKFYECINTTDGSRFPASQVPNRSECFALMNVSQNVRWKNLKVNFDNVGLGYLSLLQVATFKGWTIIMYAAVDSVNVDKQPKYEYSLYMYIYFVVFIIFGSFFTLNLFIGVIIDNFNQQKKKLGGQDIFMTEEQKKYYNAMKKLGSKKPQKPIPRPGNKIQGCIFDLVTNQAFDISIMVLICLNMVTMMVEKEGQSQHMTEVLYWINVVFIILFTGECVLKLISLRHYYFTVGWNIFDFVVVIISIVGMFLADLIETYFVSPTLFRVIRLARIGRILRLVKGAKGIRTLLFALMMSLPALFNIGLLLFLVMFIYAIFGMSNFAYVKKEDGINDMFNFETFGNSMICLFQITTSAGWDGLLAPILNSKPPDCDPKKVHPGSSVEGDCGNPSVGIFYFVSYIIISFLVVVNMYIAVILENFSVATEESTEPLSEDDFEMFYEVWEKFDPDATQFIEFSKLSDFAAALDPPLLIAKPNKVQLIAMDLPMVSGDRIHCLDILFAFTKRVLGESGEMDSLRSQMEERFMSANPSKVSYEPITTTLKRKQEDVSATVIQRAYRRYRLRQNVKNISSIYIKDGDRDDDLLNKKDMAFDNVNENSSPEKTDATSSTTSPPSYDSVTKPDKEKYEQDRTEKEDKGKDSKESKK

| Compound | IC50 [nM] |
| --- | --- |
| CC(CCCNc1cc(F)c(S(=O)(=O)Nc2nccs2)cc1Cl)NC[C@@H]1CCCN1 (single isomer, unassigned) | 12 |

Same assay, conditions: channels stably expressed in HEK 293 cells; double-pulse protocol, inactivated state block; read-out: potency for the Nav 1.7 sodium ion channel (IC50, as measured by IonWorks)

| Compound | IC50 [nM] |
| --- | --- |
| CC(CCCNc1cc(F)c(S(=O)(=O)Nc2nccs2)cc1Cl)NC[C@@H]1CCCN1 (mixture of isomers) | 11 |
| N[C@H]1CCCC[C@H]1NCCCCNc1cc(F)c(S(=O)(=O)Nc2nccs2)cc1Cl [Ex 1-30, 4-[(4-{[(1R,2S)-2-aminocyclohexyl]amino}butyl)amino]-5-chloro-2-fluoro-N-1,3-thiazol-2-ylbenzenesulfonamide] | 19 |
| CNCCNCCCCNc1cc(F)c(S(=O)(=O)Nc2nccs2)cc1Cl [Ex 5-04] | 12 |
| O=S(=O)(Nc1ncc(Cl)s1)c1cc(Cl)c(NCCCCNC[C@@H]2CCCN2)cc1F [Ex 7-9, 5-chloro-N-(5-chloro-1,3-thiazol-2-yl)-2-fluoro-4-[(4-{[(2S)-pyrrolidin-2-ylmethyl]amino}butyl)amino]benzenesulfonamide] | 29 |
| O=S(=O)(Nc1nccs1)c1cc(Br)c(NCCCCNC[C@@H]2CCCN2)cc1F [Ex 7-10, 5-bromo-2-fluoro-4-[(4-{[(2S)-pyrrolidin-2-ylmethyl]amino}butyl)amino]-N-1,3-thiazol-2-ylbenzenesulfonamide] | 16 |
| O=S(=O)(Nc1ncc(F)s1)c1cc(Cl)c(NCCCCNC[C@@H]2CCCN2)cc1F [Ex 7-11, 5-chloro-2-fluoro-N-(5-fluoro-1,3-thiazol-2-yl)-4-[(4-{[(2S)-pyrrolidin-2-ylmethyl]amino}butyl)amino]benzenesulfonamide] | 9.9 |
| C[C@@H]1CN[C@H](CNCCCCNc2cc(F)c(S(=O)(=O)Nc3nccs3)cc2Cl)C1 [Ex 8-09, 5-chloro-2-fluoro-4-{[4-({[(2S,4S)-4-methylpyrrolidin-2-yl]-methyl}amino)butyl]amino}-N-1,3-thiazol-2-yl-benzenesulfonamide] | 18 |
| C[C@H]1CC[C@@H](CNCCCCNc2cc(F)c(S(=O)(=O)Nc3nccs3)cc2Cl)N1 [Ex 8-10, 5-chloro-2-fluoro-4-{[4-({[(2S,5S)-5-methylpyrrolidin-2-yl]-methyl}amino)butyl]amino}-N-1,3-thiazol-2-yl-benzenesulfonamide] | 16 |
| O=S(=O)(Nc1ncns1)c1cc(Cl)c(NCCCCNC[C@H]2CCN2)cc1F [Ex 13-02, 4-[(4-{[(2R)-azetidin-2-yl-methyl]-amino}butyl)amino]-5-chloro-2-fluoro-N-1,2,4-thiadiazol-5-yl-benzene-sulfonamide] | 14 |
| C[C@H](N)CNCCCCNc1cc(F)c(S(=O)(=O)Nc2ncns2)cc1Cl [Ex 15-05, 4-[(4-{[(2S)-2-aminopropyl]amino}butyl)amino]-5-chloro-2-fluoro-N-1,2,4-thiadiazol-5-ylbenzenesulfonamide] | 12 |
| O=S(=O)(Nc1ncns1)c1cc(Cl)c(NCCCCNC2CNC2)cc1F [Ex 16-01, 4-{[4-(azetidin-3-ylamino)-butyl]-amino}-5-chloro-2-fluoro-N-1,2,4-thiadiazol-5-ylbenzenesulfonamide] | 15 |
| O=S(=O)(Nc1ncc(F)s1)c1cc(Br)c(NCCCCNC[C@H]2CCCCN2)cc1F [Ex 16-04, 5-bromo-2-fluoro-N-(5-fluoro-1,3-thiazol-2-yl)-4-[(4-{[(2R)-piperidin-2-ylmethyl]amino}-butyl]amino]benzene-sulfonamide] | 11 |
| C[C@H](CN)NCCCCNc1cc(F)c(S(=O)(=O)Nc2nccs2)cc1Cl [Ex 16-08, 4-[(4-{[(1R)-2-amino-1-methylethyl]-amino}butyl)-amino]-5-chloro-2-fluoro-N-1,3-thiazol-2-ylbenzenesulfonamide] | 15 |
| O=S(=O)(Nc1ncns1)c1cc(Cl)c(NCCCCNC[C@H]2CCCCN2)cc1F [Ex 16-15, 5-chloro-2-fluoro-4-[(4-{[(2R)-piperidin-2-yl-methyl]amino}butyl)-amino]-N-1,2,4-thiadiazol-5-yl-benzenesulfonamide] | 5.1 |
| O=S(=O)(Nc1ncns1)c1cc(Cl)c(NCCCCN[C@@H]2CCNC2)cc1F [Ex 16-19, 5-chloro-2-fluoro-4-({4-[(3R)-pyrrolidin-3-ylamino]-butyl}amino)-N-1,2,4-thiadiazol-5-ylbenzene-sulfonamide] | 11 |
| NCCNCCCCNc1cc(F)c(S(=O)(=O)Nc2ncns2)cc1Cl [Ex 16-33, 4-({4-[(2-aminoethyl)-amino]butyl}amino)-5-chloro-2-fluoro-N-1,2,4-thiadiazol-5-ylbenzene-sulfonamide] | 12 |
| C[C@@H](N)CCNCCCCNc1cc(F)c(S(=O)(=O)Nc2nccs2)cc1Cl [Ex 16-34, 4-[(4-{[(3R)-3-aminobutyl]-amino}butyl)amino]-5-chloro-2-fluoro-N-1,3-thiazol-2-ylbenzene-sulfonamide] | 29 |
| NCCCNCCCCNc1cc(F)c(S(=O)(=O)Nc2ncc(F)s2)cc1Cl [Ex 16-35, 4-({4[(3-aminopropyl)amino]-butyl}amino)-5-chloro-2-fluoro-N-(5-fluoro-1,3-thiazol-2-yl)benzene-sulfonamide] | 14 |
| O=S(=O)(Nc1ncc(F)s1)c1cc(Br)c(NCCCCN[C@@H]2CCNC2)cc1F [Ex 16-36, 5-bromo-2-fluoro-N-(5-fluoro-1,3-thiazol-2-yl)-4-({4-[(3R)-pyrrolidin-3-yl-amino]butyl}amino) benzene-sulfonamide] | 15 |
| O=S(=O)(Nc1nccs1)c1cc(Br)c(NCCCCN[C@@H]2CCNC2)cc1F [Ex 16-37, 5-bromo-2-fluoro-4-({4-[(3R)-pyrrolidin-3-ylamino]-butyl}amino)-N-1,3-thiazol-2-ylbenzenesulfonamide] | 19 |
| O=S(=O)(Nc1nccs1)c1cc(Cl)c(NCCCCN[C@H]2CCCCNC2)cc1F [Ex 16-41, (S)-4-{[4-(azepan-3-ylamino)-butyl]amino}-5-chloro-2-fluoro-N-1,3-thiazol-2-yl-benzenesulfonamide] | 14 |

More lines, now with the values ahead:

| IC50 [nM] | Compound |
| --- | --- |
| 56 | C[C@H](CCN)NCCCCNc1cc(F)c(S(=O)(=O)Nc2ncns2)cc1Cl [Ex 16-29, 4-[(4-{[(1R)-3-amino-1-methylpropyl]amino}butyl)-amino]-5-chloro-2-fluoro-N-1,2,4-thiadiazol-5-yl-benzenesulfonamide] |
| 34 | O=S(=O)(Nc1nccs1)c1cc(Cl)c(NCCCCNCC2CNC2)cc1F [Ex 5-03, 4-((4-((azetidin-3-ylmethyl)amino)butyl)amino)-5-chloro-2-fluoro-N-(thiazol-2-yl)benzenesulfonamide] |
| 34 | O=S(=O)(Nc1nccs1)c1cc(Cl)c(NCCCCNC[C@H]2CCCN2)cc1F [Ex 7-6, (R)-5-chloro-2-fluoro-4-((4-((pyrrolidin-2-ylmethyl)amino)butyl)amino)-N-(thiazol-2-yl)benzenesulfonamide] |
| 29 | CN(CCN)CCCCNc1cc(F)c(S(=O)(=O)Nc2nccs2)cc1Cl [Ex 1-15, 4-({4-[(2-aminoethyl) (methyl)amino]butyl}amino)-5-chloro-2-fluoro-N-1,3-thiazol-2-ylbenzenesulfonamide] |
| 28 | CC(C)(CN)NCCCCNc1cc(F)c(S(=O)(=O)Nc2nccs2)cc1Cl [Ex 1-10, 4-({4-[(2-amino-1,1-dimethylethyl)amino]-butyl}amino)-5-chloro-2-fluoro-N-1,3-thiazol-2-yl-benzenesulfonamide] |
| 28 | C[C@H](CCN)NCCCCNc1cc(F)c(S(=O)(=O)Nc2nccs2)cc1Cl [Ex 16-26, 4-[(4-{[(1R)-3-amino-1-methylpropyl]amino}butyl)amino]-5-chloro-2-fluoro-N-1,3-thiazol-2-ylbenzene-sulfonamide] |
| 21 | O=S(=O)(Nc1nccs1)c1cc(Cl)c(NCCCCNC[C@@H]2C[C@H](C(F)(F)F)CN2)cc1F [Ex 8-12, 5-chloro-2-fluoro-N-1,3-thiazol-2-yl-4-{[4-({[(2S,4S)-4-(trifluoromethyl)-pyrrolidin-2-yl]methyl}amino)butyl]amino}benzenesulfonamide] |
| 18 | O=S(=O)(Nc1ncc(F)s1)c1cc(Cl)c(NCCCCNCC[C@H]2CCCN2)cc1F [Ex 16-18, 5-chloro-2-fluoro-N-(5-fluoro-1,3-thiazol-2-yl)-4-{[4-({2-[(2R)-pyrrolidin-2yl]-ethyl}amino)butyl]-amino} benzenesulfonamide] |
| 15 | O=S(=O)(Nc1nccs1)c1cc(Cl)c(NCCCCNC[C@@H]2CCCN2)cc1F [Ex 1-06, 5-chloro-2-fluoro-4-[(4-{[(2S)-pyrrolidin-2-yl-methyl]amino}butyl)-amino]-N-1,3-thiazol-2-yl-benzenesulfonamide] |
| 14 | O=S(=O)(Nc1ncns1)c1cc(Cl)c(NCCCCNC[C@@H]2CCN2)cc1F [Ex 14-04, 4-[(4-{[(2S)-azetidin-2-yl-methyl]-amino}butyl)amino]-5-chloro-2-fluoro-N-1,2,4-thiadiazol-5-ylbenzene-sulfonamide] |
| 10 | O=S(=O)(Nc1nccs1)c1cc(Cl)c(NCCCCNC[C@H]2CCCCN2)cc1F [Ex 1-05, 5-chloro-2-fluoro-4-[(4-{[(2R)-piperidin-2-ylmethyl]amino}butyl)amino]-N-1,3-thiazol-2-ylbenzenesulfonamide] |
| 10 | O=S(=O)(Nc1ncns1)c1cc(Cl)c(NCCCCNC[C@@H]2CCCN2)cc1F [Ex 7-8, 5-chloro-2-fluoro-4-[(4-{[(2S)-pyrrolidin-2-ylmethyl]amino}butyl)amino]-N-1,2,4-thiadiazol-5-ylbenzenesulfonamide] |
